Laboratory results as given in patent US20230049330A1, “USE OF QX314 TO PREVENT SYMPATHO[…] ADMINISTRATION OF TRPV1 MODULATORS” (NEUCURES, INC., priority 2020, published 2023).

Test system: pigs
Test: Intrapericardial administration of RTX alone or RTX in combination with QX-314 in anesthetized pigs; heart rate and blood pressure
Format: in vivo
Conditions: 15 mL, RTX 12.5 µg/mL, QX-314 10, 20, 30 or 40 µM where combined, aspirated after 20 minutes
Method: We evaluated the effects of the TRPV1 modulator RTX alone and in combination with QX-314 on cardiovascular function, specifically heart rate and blood pressure, in pigs. Animals were first sedated with telazol (4-8 mg/kg, intramuscular), intubated, and mechanically ventilated. General anesthesia was maintained with isoflurane (1-2%, inhaled). A 12-lead surface electrocardiogram and arterial blood pressure were continuously obtained using a GE Healthcare CardioLab system. Local anesthesia with 1% lidocaine was then administered to the left sternocostal angle before making a small incision. Percutaneous access into the pericardial space was obtained using a Touhy needle under fluoroscopic guidance (see FIG. 1). Contrast was used to visualize the advancement of the needle tip, and intrapericardial access was confirmed by passing a wire through the needle and inducing cardiac ectopy. After confirming access, a sheath was introduced into the pericardial space over the wire. A 12.5 µg/mL RTX solution was prepared by first creating a stock solution of 0.1 mg/mL by dissolving 0.5 mg of RTX powder in 2.5 mL of dimethyl sulfoxide and 2.5 mL of 0.9% sodium chloride, and then diluting the stock solution to 12.5 µg/mL by adding 1.87 mL of it to 13.13 mL of 0.9% sodium chloride. […]

SMILES: C=C(C)[C@]12C[C@@H](C)[C@@]34O[C@](Cc5ccccc5)(O[C@@H]1[C@@H]3C=C(COC(=O)Cc1ccc(O)c(OC)c1)C[C@]1(O)C(=O)C(C)=C[C@@H]41)O2 [RTX, resiniferatoxin]
- blood pressure change from baseline (FIG. 2B, FIG. 2C): significant increase
- heart rate change from baseline (FIG. 2A): significant increase
